# Values joined by “and” are separate entries in the source; they are usually repeats but may differ in a detail not shown here. Identical values can stand only once. “Also recorded” adds a separate entry of the source.
# Tests used:
# [1] = test system: wildtype NRF2 sequence; test: In vitro cleavage reaction, wildtype NRF2 amplicons; format: biochemical, human; conditions: A549 or H1703 parental amplicons, 0.5-5 pmol RNP, gel electrophoresis
# Procedure: (§1) As proof of concept, an in vitro cleavage reaction was conducted to assess the level of discrimination using the R34G guide RNA in a ribonucleoprotein complex (RNP). The in vitro cleavage reaction encompasses complexing target specific-guide RNA with Cas9 protein to form a ribonucleoprotein (RNP). The RNP is incubated with DNA of interest (100 ng) and the reaction and cleavage products are visualized by gel electrophoresis. For this experiment, wildtype and R34G-mutated NRF2 PCR products (901 bp) from an NRF2 expression plasmid (FIG. 21) were incubated with R34G-targeting RNP complex (1 μM) and cleavage products were visualized by gel electrophoresis, shown in FIG. 22.
# Once the sequences were verified, genomic DNA from each cell line was used to amplify exon 2 of NRF2. The PCR products (530 bp) from each cell line were then used in in vitro cleavage reactions under various parameters to test specificity and fidelity of the R34G-targeting RNP. For these cleavage reactions, expected cleavage products would appear at 385 and 145 bp as indicated by the red lines along the ladder, with uncut product appearing at 530 bp. FIG. 24 depicts the gel image from an in vitro cleavage reaction using wildtype NRF2 sequence from parental A549 cells and R34G-mutated NRF2 sequence from the A549 R34G-6 cells. […]
# [2] = test system: R34G-mutated NRF2 sequence; test: In vitro cleavage reaction, R34G-mutated NRF2 amplicons; format: biochemical, human; conditions: gel electrophoresis; for cleavage specificity, NRF2 expression plasmid and 901 bp amplicons: wildtype versus R34G NRF2, RNP 1 μM, DNA 100 ng
# Procedure: as §1
# Once the sequences were verified, genomic DNA from each cell line was used to amplify exon 2 of NRF2. The PCR products (530 bp) from each cell line were then used in in vitro cleavage reactions under various parameters to test specificity and fidelity of the R34G-targeting RNP. For these cleavage reactions, expected cleavage products would appear at 385 and 145 bp as indicated by the red lines along the ladder, with uncut product appearing at 530 bp. FIG. 24 depicts the gel image from an in vitro cleavage reaction using wildtype NRF2 sequence from parental A549 cells and R34G-mutated NRF2 sequence from the A549 R34G-6 cells. An increasing concentration (0.5-5 pmol) of R34G-targeting RNP was used to determine the threshold and fidelity of the sequence. […] Uncut product (top band, 530 bp) can still be seen in lanes 7-10, which corresponds to the heterozygosity of the R34G mutation in the A549 R34G-6 cell line. Therefore, the wildtype NRF2 allele in the A549 R34G-6 cell line acts as an internal negative control.
# Another in vitro cleavage reaction was conducted to assess the cleavage efficiency of the wildtype NRF2 sequence to ensure the R34G-targeting RNP was, in fact, not cleaving the wildtype NRF2 sequence because of the lack of the R34G mutation. A guide RNA with a cut site 29 bp upstream (labeled Neh2 RNP) from the R34G RNP cut site was selected and used as a positive cleavage control. […] Lanes 1-8 were reactions using wildtype NRF2 sequence while lanes 9-16 were reactions using R34G-mutated NRF2 sequence. In lanes 2-4 and 10-12, PCR products were incubated with increasing concentrations (1, 3 & 5 pmol) of RNP targeting the beginning of exon 2 (Neh2 RNP). The Neh2 guide RNA sequence is: 5′ […] 3′ (SEQ ID NO:13) which is a native CRISPR site and used as the positive control for cleavage for these reactions. […] In lanes 6-8 and 14-16, PCR products were incubated with increasing concentrations (1, 3 & 5 pmol) of R34G-targeting RNP. […] This further reinforces the specificity of the R34G-targeting RNP only recognizing the target DNA in the presence of the R34G mutation in exon 2 of NRF2. […]
# [3] = test system: wildtype NRF2 gene in NCI-H1703 cell line; test: TIDE analysis after transfection of R34G-targeting RNP, H1703 parental cells; format: cell-based, human
# Procedure: (§2) The in vitro cleavage reactions were further assessed through cell based-experiments using the same cell lines: A549 and H1703 parental cell lines and the A549 R34G-6 cell line. The cell lines were cultured under the standard conditions and transfected by electroporation (Lonza, Nucleofection) using previously established parameters. FIGS. 27-29 depict the genetic analysis of eight separate experiments using all three cell lines after transfection of the R34G-targeting RNP. This experiment was conducted under three different conditions. The first condition was using an equimolar concentration of duplexed guide RNA to Cas9. The second condition was using five times the amount of duplexed guide RNA to Cas9, along with using a GFP (Green Fluorescent Protein) expression vector to measure transfection efficiency and to sort the GFP-positive population for further analysis. The third condition was using five times the amount of single guide RNA to Cas9, along with the GFP expression vector and sorting of the GFP-positive population for further analysis.
# FIG. 29 depicts the genetic analysis after transfection of the R34G-targeting RNP in the NCI-H1703 cell line, which contains a wildtype NRF2 gene and no native CRISPR recognition site.
# [4] = test system: R34G-mutated NRF2 gene in A549 R34G-6 cells; test: TIDE analysis after transfection of R34G-targeting RNP, A549 R34G-6 cells; format: cell-based, human; conditions: GFP-positive sorted population
# Procedure: as §2
# FIG. 28 depicts the genetic analysis after transfection of the R34G-targeting RNP in the A549 R34G-mutated clonal cell line (A549 R34G-6). The A549 R34G-6 cells contain a heterozygous R34G mutation in exon 2 of the NRF2 gene, creating a new CRISPR recognition site for the R34G-targeting RNP. […] The significant total indel efficiency indicates the R34G-targeting RNP is very active. […] The lower R2 value indicates some of the sequence analysis is unaccounted for likely because of sequence quality. […] Although only a speculation, the R34G-targeting RNP does differentiate between the wildtype and R34G-mutated alleles within the clonal cell line.
# [5] = test system: wildtype NRF2 gene in A549 parental cells; test: TIDE analysis after transfection of R34G-targeting RNP, A549 parental cells; format: cell-based, human
# Procedure: as §2
# FIG. 27 depicts the genetic analysis after transfection of the R34G-targeting RNP in the A549 parental cells. The A549 parental cells contain a wildtype NRF2 gene therefore there is no native CRISPR/Cas9 recognition site for the R34G-targeting RNP. […]
# [6] = top panel, bulk unsorted population
substance,measurement,setting,value
5′ GATATAGATCTTGGAGTAAGTGG 3′ [R34G-targeting RNP],cleavage of wildtype NRF2 amplicon (530 bp),[1],does not result in cleavage of wildtype NRF2 sequence; also recorded: minimal cleavage seen in lanes 6-8
same,cleavage of R34G-mutated NRF2 amplicon (530 bp),"[2]; A549 R34G-6 amplicon, 0.5-5 pmol RNP",cleavage products can be seen even with half of the standard concentration; also recorded: clearly seen
same,"cleavage specificity, NRF2 expression plasmid and 901 bp amplicons",[2],only recognizes and cleaves the mutated DNA sequence
same,"cleavage specificity, NRF2 expression plasmid and 901 bp amplicons",[2]; listed as R34G RNP,only recognizes and cleaves with the mutation present
same,total indel efficiency,"[3]; bottom panel, GFP-sorted population",4.6%
same,total indel efficiency,[3]; [6],0.0%
same,total indel efficiency,[4]; bottom panel,32.7%
same,sequence analyzed that is wildtype,[4]; middle panel,32.0%
same,total indel efficiency,[4]; middle panel,55.7%
same,total indel efficiency,"[5]; bottom panel, GFP-positive sorted population",11.4% and 11.3%
same,total indel efficiency,[5]; [6],11.8% and 11.4%

# Reference: US11505797B2, “Gene knockout of variant NRF2 for treatment of cancer” (Christiana Care Health Services, Inc., priority 2019, dated 2022)
